Results as given in PubChem BioAssay (NCI).
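Exposure lasted 48 hours, with cells grown in 96-well plates and compounds tested at five concentrations. GI50 = concentration required for 50% inhibition of growth. TGI marks complete inhibition of growth.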

Experiments:
Experiment in all cases: NCI-60 cell line screen, 48 h
[1] = tested on: 786-0 renal
[2] = tested on: OVCAR-4 ovarian
[3] = tested on: CAKI-1 renal
[4] = tested on: MDA-MB-231 breast
[5] = tested on: MALME-3M melanoma
[6] = tested on: RXF 393 renal
[7] = tested on: K-562 leukemia
[8] = tested on: COLO 205 colon
[9] = tested on: ACHN renal
[10] = tested on: SR leukemia
[11] = tested on: SF-539 CNS
[12] = tested on: UO-31 renal
[13] = tested on: SW-620 colon
[14] = tested on: OVCAR-3 ovarian
[15] = tested on: CCRF-CEM leukemia
[16] = tested on: HCT-15 colon
[17] = tested on: BT-549 breast
[18] = tested on: M14 melanoma
[19] = tested on: HL-60(TB) leukemia
[20] = tested on: PC-3 prostate
[21] = tested on: HOP-62 NSCLC
[22] = tested on: HS 578T breast
[23] = tested on: NCI-H522 lung
[24] = tested on: HT29 colon
[25] = tested on: HCC-2998 colon
[26] = tested on: NCI/ADR-RES ovarian
[27] = tested on: MOLT-4 leukemia
[28] = tested on: UACC-257 melanoma
[29] = tested on: MCF7 breast
[30] = tested on: UACC-62 melanoma
[31] = tested on: SF-295 CNS
[32] = tested on: EKVX NSCLC
[33] = tested on: OVCAR-5 ovarian
[34] = tested on: SK-MEL-2 melanoma
[35] = tested on: KM12 colon
[36] = tested on: IGROV1 ovarian
[37] = tested on: A549 NSCLC
[38] = tested on: SNB-75 CNS
[39] = tested on: LOX IMVI melanoma
[40] = tested on: SF-268 CNS
[41] = tested on: TK-10 renal
[42] = tested on: HOP-92 NSCLC
[43] = tested on: SK-OV-3 ovarian
[44] = tested on: NCI-H460 lung
[45] = tested on: NCI-H23 lung
[46] = tested on: RPMI-8226 leukemia
[47] = tested on: SN12C renal
[48] = tested on: HCT-116 colon
[49] = tested on: SNB-19 CNS
[50] = tested on: A498 renal
[51] = tested on: MDA-MB-435
[52] = tested on: SK-MEL-28 melanoma
[53] = tested on: T-47D breast
[54] = tested on: NCI-H226 lung
[55] = tested on: SK-MEL-5 melanoma
[56] = tested on: U251 CNS
[57] = tested on: DU-145 prostate
[58] = tested on: OVCAR-8 ovarian

COC(=O)c1ccc2[nH]c(O)c(C(=Nc3ccc(N(C)C(=O)CN4CCN(C)CC4)cc3)c3cccc(OC)c3)c2c1
GI50 [1]: 0.825 µM | TGI [1]: 2.38 µM | GI50 [2]: 0.96 µM | TGI [2]: 2.84 µM | GI50 [3]: 0.373 µM | TGI [3]: 3.38 µM | GI50 [4]: 1.31 µM | TGI [4]: 3.27 µM | GI50 [5]: 1.49 µM | TGI [5]: 2.96 µM | GI50 [6]: 0.549 µM | TGI [6]: 1.87 µM | GI50 [7]: 0.107 µM | TGI [7]: 4.37 µM | GI50 [8]: 0.395 µM | TGI [8]: 1.8 µM | GI50 [9]: 2.14 µM | TGI [9]: 7.99 µM | GI50 [10]: 0.231 µM | TGI [10]: 4.52 µM | GI50 [11]: 0.463 µM | TGI [11]: 1.69 µM | GI50 [12]: 1.54 µM | TGI [12]: 4.05 µM | GI50 [13]: 0.429 µM | TGI [13]: 4.95 µM | GI50 [14]: 0.96 µM | TGI [14]: 2.57 µM | GI50 [15]: 0.447 µM | TGI [15]: 6.83 µM | GI50 [16]: 1.9 µM | TGI [16]: 7.04 µM | GI50 [17]: 1.39 µM | TGI [17]: 3.47 µM | GI50 [18]: 0.921 µM | TGI [18]: 2.41 µM | GI50 [19]: 0.583 µM | TGI [19]: 2.51 µM | GI50 [20]: 0.631 µM | TGI [20]: 5.87 µM | GI50 [21]: 1.21 µM | TGI [21]: 4.78 µM | GI50 [22]: 0.213 µM | TGI [22]: 4.13 µM | GI50 [23]: 1.03 µM | TGI [23]: 3.89 µM | GI50 [24]: 0.89 µM | TGI [24]: 13.1 µM | GI50 [25]: 1.65 µM | TGI [25]: 4.98 µM | GI50 [26]: 12.4 µM | TGI [26]: 34 µM | GI50 [27]: 0.392 µM | TGI [27]: 3.26 µM | GI50 [28]: 2.01 µM | TGI [28]: 4.64 µM | GI50 [29]: 0.353 µM | TGI [29]: 1.93 µM | GI50 [30]: 2.14 µM | TGI [30]: 4.52 µM | GI50 [31]: 1.12 µM | TGI [31]: 2.63 µM | GI50 [32]: 2.04 µM | TGI [32]: 6.77 µM | GI50 [33]: 2.29 µM | TGI [33]: 5.46 µM | GI50 [34]: 1.89 µM | TGI [34]: 4.51 µM | GI50 [35]: 0.0419 µM | TGI [35]: 4.49 µM | GI50 [36]: 0.191 µM | TGI [36]: 2.19 µM | GI50 [37]: 1.39 µM | TGI [37]: 6.42 µM | GI50 [38]: 0.112 µM | TGI [38]: 1.78 µM | GI50 [39]: 0.654 µM | TGI [39]: 2.3 µM | GI50 [40]: 1.48 µM | TGI [40]: 4.08 µM | GI50 [41]: 1.61 µM | TGI [41]: 3.78 µM | GI50 [42]: 2.98 µM | TGI [42]: 10.9 µM | GI50 [43]: 0.198 µM | TGI [43]: 1.88 µM | GI50 [44]: 1.41 µM | TGI [44]: 3.44 µM | GI50 [45]: 1.05 µM | TGI [45]: 3.48 µM | GI50 [46]: 1.02 µM | TGI [46]: 3.55 µM | GI50 [47]: 0.346 µM | TGI [47]: 10.8 µM | GI50 [48]: 0.21 µM | TGI [48]: 4.66 µM | GI50 [49]: 1.64 µM | TGI [49]: 8.4 µM | GI50 [50]: 1.26 µM | TGI [50]: 2.61 µM | GI50 [51]: 1.48 µM | TGI [51]: 3.86 µM | GI50 [52]: 1.71 µM | TGI [52]: 3.77 µM | GI50 [53]: 1.28 µM | TGI [53]: 9.34 µM | GI50 [54]: 1.08 µM | TGI [54]: 5.93 µM | GI50 [55]: 1.43 µM | TGI [55]: 2.78 µM | GI50 [56]: 1.15 µM | TGI [56]: 3 µM | GI50 [57]: 1.89 µM | TGI [57]: 9.32 µM | GI50 [58]: 1.22 µM | TGI [58]: 9.91 µM

CCOC(=O)/C=C(\C)Sc1cc(O)c2ccccc2c1O
TGI [1]: 44.2 µM | TGI [2]: 32 µM | TGI [3]: 46.8 µM | TGI [4]: 44.2 µM | TGI [5]: 29.1 µM | TGI [6]: 31.9 µM | TGI [7]: > 100 µM | TGI [8]: 35.1 µM | TGI [9]: 29.7 µM | TGI [10]: > 100 µM | TGI [11]: 45 µM | TGI [12]: 18.9 µM | TGI [13]: > 100 µM | TGI [14]: > 100 µM | TGI [15]: > 100 µM | TGI [16]: 37.8 µM | TGI [17]: 40.9 µM | TGI [18]: 52.5 µM | TGI [19]: 88.7 µM | TGI [20]: 67.2 µM | TGI [21]: 39.8 µM | TGI [22]: > 100 µM | TGI [23]: 24.9 µM | TGI [24]: 42.9 µM | TGI [25]: 28.1 µM | TGI [26]: 86.7 µM | TGI [27]: > 100 µM | TGI [28]: 35.6 µM | TGI [29]: 65.6 µM | TGI [30]: 60.1 µM | TGI [31]: 51.6 µM | TGI [32]: 81.9 µM | TGI [33]: 54.3 µM | TGI [34]: 50.5 µM | TGI [35]: 75.4 µM | TGI [36]: 27.7 µM | TGI [37]: 85.9 µM | TGI [38]: 23.8 µM | TGI [39]: 92.2 µM | TGI [40]: 25 µM | TGI [41]: 53.8 µM | TGI [42]: 62.4 µM | TGI [43]: 66.4 µM | TGI [44]: 44.6 µM | TGI [45]: > 100 µM | TGI [46]: > 100 µM | TGI [47]: 83.5 µM | TGI [48]: > 100 µM | TGI [49]: 34.1 µM | TGI [50]: 41.1 µM | TGI [51]: 5.8 µM | TGI [52]: 30.4 µM | TGI [53]: 9.9 µM | TGI [54]: 61.3 µM | TGI [55]: 26.6 µM | TGI [56]: 40.9 µM | TGI [57]: > 100 µM | TGI [58]: 42.4 µM
